Consider 22 compounds from US12357603B2, “Acyl sulfonamides for treating cancer” (Bayer Aktiengesellschaft, priority 2019, dated 2025).

Assay [1] deals with Recombinant human His-tagged Kat6a protein (amino acids 194-810) (Homo sapiens (Human), UniProt Q92794). As to the kind of experiment: Kat6a activity assay (TR-FRET, acetylation of biotinylated Histone-H4-derived peptide). The format is biochemical. As to conditions: 60 mins at 22° C., read-out: KAT6A-DPF/HAT domain IC50 [mol/l] (arithmetic mean). The essentials: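 TR-FRET read-out of H4 K8 acetylation, using anti-acetyl-K8 antibody and streptavidin acceptor, after anacardic acid stop; IC50 from four-parameter regression normalized to DMSO. Reaction: recombinant human Kat6a aa 194-810 (insect-cell derived), 220 nM H4 1-24 peptide, 600 nM acetyl-CoA, pH 8, 22 °C, 60 min, compounds 0.01-20 μM.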
Sequence of Recombinant human His-tagged Kat6a protein (amino acids 194-810) (Q92794 194-810): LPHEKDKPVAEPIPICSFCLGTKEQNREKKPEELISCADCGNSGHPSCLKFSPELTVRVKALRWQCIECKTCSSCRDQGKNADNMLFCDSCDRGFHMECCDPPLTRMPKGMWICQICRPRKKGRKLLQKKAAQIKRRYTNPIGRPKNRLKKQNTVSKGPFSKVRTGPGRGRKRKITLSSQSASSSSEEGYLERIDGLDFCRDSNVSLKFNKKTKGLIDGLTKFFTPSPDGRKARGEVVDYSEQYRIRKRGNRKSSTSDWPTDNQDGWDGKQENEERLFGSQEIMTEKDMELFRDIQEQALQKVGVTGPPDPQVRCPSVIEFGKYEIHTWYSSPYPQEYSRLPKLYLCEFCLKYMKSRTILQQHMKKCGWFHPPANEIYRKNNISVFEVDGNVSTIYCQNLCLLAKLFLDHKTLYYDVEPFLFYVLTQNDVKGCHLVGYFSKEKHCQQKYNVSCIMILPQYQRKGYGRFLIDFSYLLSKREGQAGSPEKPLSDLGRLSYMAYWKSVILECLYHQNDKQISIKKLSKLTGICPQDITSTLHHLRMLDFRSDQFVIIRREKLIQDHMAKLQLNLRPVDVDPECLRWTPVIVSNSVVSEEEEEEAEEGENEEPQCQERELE
Background: TR-FRET usually uses a lanthanide donor and a delayed reading to cut background.

Assay [2] relates to ESR1 transcription (luciferase signal in MVLN cells). Nature of the assay: Repression of ESR1 transcription, luciferase reporter in MVLN cells. It is filed as cell-based. As to conditions: Homo sapiens, MVLN, inhibition of luciferase signal in MVLN cells; arithmetic mean. A digest of the protocol:
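Luminescence from an ER-driven Vitellogenin A2 element–luciferase reporter was measured after 24 h of treatment of MVLN cells, in duplicate wells. Alamar Blue (2 h, 530/590 nm) served as a cell-density control.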
For orientation: In a reporter assay the amount or activity of a reporter protein is the signal.

A further assay concerns ZR-75-1 cells. Nature of the assay: Proliferation assay ZR-75-1 (Alamar Blue, 144 h). It is filed as cell-based. As to conditions: Homo sapiens, ZR-75-1, 144 h, arithmetic mean, read-out: ZR75-1 proliferation assay, EC50 [M] (arithmetic mean). The essentials:
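Alamar Blue fluorescence (590 nm, 2 h reagent step) measured viability after 144 h compound exposure at 37 °C, 5% CO2. Compounds spanned 2.0×10E-5 to 2.0×10E-9 M in 9 dilutions at 0.2% DMSO, in triplicate, added 24 h after plating 3000 cells/well in RPMI 1640 plus 2.5% FBS.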
For orientation: The colour change of resazurin is a common sign of viable cells or microbes.

Another assay relates to MDA-MB-436 cells. As to the kind of experiment: Proliferation assay MDA-MB-436, negative control cell line (Alamar Blue, 144 h). The format is cell-based. As to conditions: Homo sapiens, MDA-MB-436, 144 h, arithmetic mean. A digest of the protocol:
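Viability read as Alamar Blue fluorescence (590 nm, 2 h) after 144 h compound exposure at 37 °C, 5% CO2. Cells seeded at 3000 per well in 2.5% FBS DMEM/Ham's F12, dosed a day later over 2.0×10E-9–2.0×10E-5 M in 9 steps with 0.2% DMSO, in triplicate.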

Some results are limits rather than exact numbers.

In the case of `COc1cccc(S(C)(=O)=O)c1S(=O)(=O)NC(=O)c1cc2ccc(N(C)C)cc2o1` [Example 140, 6-(Dimethylamino)-N-[2-(methanesulfonyl)-6-methoxybenzene-1-sulfonyl]-1-benzofuran-2-carboxamide], the IC50 turned out to be 5670 nM in assay [1] and 9.65 µM in assay [2]. The values for the EC50 in the assay on ZR-75-1 cells and in the assay on MDA-MB-436 cells were 7.83e-06 M and over 20 µM, respectively.
In the case of `COc1cccc(S(=O)(=O)N(C)C)c1S(=O)(=O)NC(=O)c1cc2ccc(N(C)C)cc2o1` [Example 141, 6-(Dimethylamino)-N-[2-(dimethylsulfamoyl)-6-methoxybenzene-1-sulfonyl]-1-benzofuran-2-carboxamide], the IC50 in assay [1] was 317 nM; in assay [2], 1.76 µM. The EC50 in the assay with ZR-75-1 cells is 1.92e-06 M; with MDA-MB-436 cells it was over 20 µM.
The matching figures for `CC(C)Nc1ncc(Br)cc1S(=O)(=O)NC(=O)c1cc2ccc(N(C)C)cc2o1` [Example 145, N-{5-Bromo-2-[(propan-2-yl)amino]pyridine-3-sulfonyl}-6-(dimethylamino)-1-benzofuran-2-carboxamide]: 438 nM, 6.8 µM, 7.2e-06 M and over 20 µM.
The matching figures for `CN(C)c1ccc2cc(C(=O)NS(=O)(=O)c3cc(Br)cnc3NC3CC3)oc2c1` [Example 146, N-[5-Bromo-2-(cyclopropylamino)pyridine-3-sulfonyl]-6-(dimethylamino)-1-benzofuran-2-carboxamide]: 266 nM, 5.16 µM, 3.73e-06 M and over 20 µM.
The matching figures for `CCCNc1ncc(Br)cc1S(=O)(=O)NC(=O)c1cc2ccc(N(C)C)cc2o1` [Example 150, N-[5-bromo-2-(propylamino)pyridine-3-sulfonyl]-6-(dimethylamino)-1-benzofuran-2-carboxamide]: 429 nM, 8.29 µM, over 2e-05 M and 10.2 µM.
Take `Cc1cccc(Nc2ccncc2S(=O)(=O)NC(=O)c2cc3ccc(N(C)C)cc3o2)c1` [Example 151, 6-(Dimethylamino)-N-[4-(3-methylanilino)pyridine-3-sulfonyl]-1-benzofuran-2-carboxamide]: the IC50 in assay [1] amounted to 234 nM; in assay [2], 9.85 µM. Besides, the EC50 is 2.87e-06 M in the assay on ZR-75-1 cells and over 20 µM in the assay with MDA-MB-436 cells.
Taken in the same sequence, the figures for `COc1ccc(S(=O)(=O)NC(=O)c2cc3ccc(N(C)C)cc3o2)cn1` [Example 152, 6-(Dimethylamino)-N-(6-methoxypyridine-3-sulfonyl)-1-benzofuran-2-carboxamide] were 1400 nM, 2.93 µM, 2.16e-06 M and over 20 µM.
The matching figures for `CN(C)c1ccc2cc(C(=O)NS(=O)(=O)c3ccc(N)c4cccnc34)oc2c1` [Example 166, N-(5-Aminoquinoline-8-sulfonyl)-6-(dimethylamino)-1-benzofuran-2-carboxamide]: 56.4 nM, 0.15 µM, 1.5e-07 M and 6.31 µM.
Taken in the same sequence, the figures for `CN(C)c1ccc2cc(C(=O)NS(=O)(=O)c3ccccc3OCCN)oc2c1` [Example 167, N-[2-(2-Aminoethoxy)benzene-1-sulfonyl]-6-(dimethylamino)-1-benzofuran-2-carboxamide hydrogen chloride (1/1)] were 2060 nM, 9.1 µM, 9.52e-06 M and over 20 µM.
In the case of `CN(C)c1ccc2cc(C(=O)NS(=O)(=O)c3ccccc3OCCOCCOCCOCCNc3ccc([N+](=O)[O-])c4nonc34)oc2c1` [Example 168, 6-(Dimethylamino)-N-(2-{2-[2-(2-{2-[(7-nitro-2,1,3-benzoxadiazol-4-yl)amino]ethoxy}ethoxy)ethoxy]ethoxy}benzene-1-sulfonyl)-1-benzofuran-2-carboxamide], the IC50 in assay [1] is 128 nM; in assay [2], 8.6 µM. For the same compound, the EC50 in the assay on ZR-75-1 cells was 1.24e-05 M; in the assay on MDA-MB-436 cells, over 20 µM.
Take `CCOc1ccc(C(F)(F)F)cc1S(=O)(=O)NC(=O)c1cc2ccc(N(C)C)cc2o1` [Example 172, 6-(Dimethylamino)-N-[2-ethoxy-5-(trifluoromethyl)phenyl]sulfonyl-benzofuran-2-carboxamide]: the IC50 in assay [1] came to 54 nM; in assay [2] it was 0.0723 µM. The EC50 was 8.08e-08 M in the assay on ZR-75-1 cells and over 20 µM in the assay on MDA-MB-436 cells.
Regarding `CCOc1ccc(F)cc1S(=O)(=O)NC(=O)c1cc2ccc(N(C)C)cc2o1` [Example 173, 6-(Dimethylamino)-N-(2-ethoxy-5-fluoro-phenyl)sulfonyl-benzofuran-2-carboxamide], the IC50 turned out to be 97.3 nM in assay [1] and 0.0674 µM in assay [2]. Besides, the EC50 was 1.1e-07 M in the assay with ZR-75-1 cells and over 20 µM in the assay with MDA-MB-436 cells.
Taken in the same sequence, the figures for `CC(C)c1ccc(OCc2ccccc2)c(S(=O)(=O)NC(=O)c2cc3ccc(N(C)C)cc3o2)c1` [Example 176, N-(2-Benzyloxy-5-isopropyl-phenyl)sulfonyl-6-(dimethylamino)benzofuran-2-carboxamide] were 12.8 nM, 0.0348 µM, 9.71e-08 M and 19.5 µM.
The matching figures for `CC(C)c1ccc(OCC(F)(F)F)c(S(=O)(=O)NC(=O)c2cc3ccc(N(C)C)cc3o2)c1` [Example 178, 6-(Dimethylamino)-N-[5-isopropyl-2-(2,2,2-trifluoroethoxy)phenyl]sulfonyl-benzofuran-2-carboxamide]: 11 nM, 0.0696 µM, 8.65e-08 M and over 20 µM.
The matching figures for `CC(C)Oc1ccc(C(C)(C)C)cc1S(=O)(=O)NC(=O)c1cc2ccc(N(C)C)cc2o1` [Example 183, N-((5-(tert-butyl)-2-isopropoxyphenyl)sulfonyl)-6-(dimethylamino)benzofuran-2-carboxamide]: 15.4 nM, 0.0455 µM, 7.53e-08 M and over 20 µM.
`Cc1ccc2cccc(S(=O)(=O)NC(=O)c3cc4cc(Cl)c(N(C)C)cc4o3)c2n1` [Example 187, 5-Chloro-6-(dimethylamino)-N-((2-methylquinolin-8-yl)sulfonyl)benzofuran-2-carboxamide]: the IC50 in assay [1] was 6640 nM; in assay [2], over 20 µM. For the same compound, the figures for the EC50 in the assay on ZR-75-1 cells and with MDA-MB-436 cells were over 2e-05 M and over 20 µM, respectively.
On to `CCOc1ccccc1S(=O)(=O)NC(=O)c1cc2cc(Cl)c(N(C)C)cc2o1` [Example 188, 5-Chloro-6-(dimethylamino)-N-((2-ethoxyphenyl)sulfonyl)benzofuran-2-carboxamide], for which the IC50 in assay [1] is 10300 nM; in assay [2], over 20 µM. The EC50 in the assay on ZR-75-1 cells is over 2e-05 M; in the assay with MDA-MB-436 cells it was over 20 µM.
On to `CN(C)c1cc2oc(C(=O)NS(=O)(=O)c3ccccc3-c3ccccc3)cc2cc1Cl` [Example 189, N-([1,1′-biphenyl]-2-ylsulfonyl)-5-chloro-6-(dimethylamino)benzofuran-2-carboxamide], for which the IC50 in assay [1] stood at 2440 nM; in assay [2] it was 6.48 µM. Moreover, the EC50 with ZR-75-1 cells is over 2e-05 M; in the assay with MDA-MB-436 cells, over 20 µM.
As for `Cc1ccc2cccc(S(=O)(=O)NC(=O)c3cc4ccc(N(C)C)c(F)c4o3)c2n1` [Example 190, 6-(Dimethylamino)-7-fluoro-N-((2-methylquinolin-8-yl)sulfonyl)benzofuran-2-carboxamide], the IC50 in assay [1] came out at 1400 nM; in assay [2], 1.93 µM. The EC50 with ZR-75-1 cells turned out to be 3.3e-06 M; in the assay on MDA-MB-436 cells, 10.4 µM.
In the case of `CCOc1ccccc1S(=O)(=O)NC(=O)c1cc2ccc(N(C)C)c(F)c2o1` [Example 191, 6-(Dimethylamino)-N-((2-ethoxyphenyl)sulfonyl)-7-fluorobenzofuran-2-carboxamide], the IC50 was 4700 nM in assay [1] and 11.2 µM in assay [2]. In addition, the figures for the EC50 in the assay on ZR-75-1 cells and with MDA-MB-436 cells were 5.64e-06 M and over 20 µM, respectively.
Take `CN(C)c1ccc2cc(C(=O)NS(=O)(=O)c3ccccc3-c3ccccc3)oc2c1F` [Example 192, N-([1,1′-biphenyl]-2-ylsulfonyl)-6-(dimethylamino)-7-fluorobenzofuran-2-carboxamide]: the figures for the IC50 in assay [1] and in assay [2] were 2980 nM and 16.4 µM, respectively. Further, the EC50 in the assay on ZR-75-1 cells is over 2e-05 M; in the assay on MDA-MB-436 cells, over 20 µM.
The matching figures for `CN(C)c1cc(C(F)(F)F)c2cc(C(=O)NS(=O)(=O)c3ccccc3)oc2c1` [Example 194, 6-(Dimethylamino)-N-(phenylsulfonyl)-4-(trifluoromethyl)benzofuran-2-carboxamide]: 44.9 nM, 4.09 µM, 1.12e-06 M and over 20 µM.
